Source: patent US9849141B2, “Use of spironolactone-based composition that exhibits an inhibitory action on T-lymphocyte activation which is useful for preventing and/or treating multiple sclerosis” (PONTIFICIA UNIVERSIDAD CATOLICA DE CHILE, priority 2010, dated 2017)

Key:
[1] = tested on: dendritic cells / CD4+ T-cells; details: cited from earlier work
[2] = tested on: experimental autoimmune encefalomyelitis (EAE); details: administration to EAE mice; for MR inhibitors also in mice that did not receive aldosterone; cited from earlier work
[3] = tested on: CD8+ or CD4+ T-lymphocytes co-cultured with antigen-presenting cells (dendritic cells); assay: T-lymphocyte activation by ovalbumin-pulsed antigen-presenting cells, IL-2 ELISA; format: cell-based, transgenic mice; details: 5 ug/ml during co-culture, 24 hrs, antigen-presenting cells pulsed with 10 ug/ml ovalbumin (FIG. 2)
Protocol: FIG. 2. Plots showing the effect of a composition comprising spironolactone in the inhibition of activation of T-lymphocytes through antigen-presenting cells. Antigen-presenting cells (dendritic cells) were pulsed with ovalbumin, washed and co-cultured with CD8+ or CD4+T-lymphocytes obtained from transgenic mice whose TCR specifically recognizes an ovalbumin derived peptide charged on class I or II MHC respectively. At the same time, the culture was treated with spironolactone (-□-) eplerenone (-▾-) or not treated (control -▴-) and after 24 hours, the supernatant was withdrawn and the presence of interleukin-2 (IL-2) assayed using ELISA. *p<0.05 one-way ANOVA.
Antigen-presenting cells were pulsed with 10 ug/ml of ovalbumin (OVA) protein over 24 hrs, washed and then co-cultured with CD8+ or CD4+T-lymphocytes obtained from transgenic mice whose TCR recognizes specifically a ovalbumin derived peptide charged in MHC class I or II, respectively. […] After 24 hrs, the supernatant was withdrawn and IL-2 secretion, a cytokine secreted by activated T-lymphocytes, was assayed using ELISA assay. In this specific immunological test, it is expected the activation of said T-lymphocytes and, therefore, an increase in IL-2 secretion.

[4] = tested on: immune synapsis between T-lymphocytes and antigen-presenting cells; assay: Immune synapsis between antigen-presenting cells and T-lymphocytes, Golgi polarization by confocal fluorescence microscopy; format: cell-based; details: 5 ug/ml in culture medium, co-culture 2 hrs (FIG. 4B)
Excerpt: FIG. 4: Photographs using confocal fluorescence microscopy, showing immunological synapsis between antigen-presenting dendritic cells and T-lymphocyte. T-lymphocytes were dyed with BODIPY FL C5-Ceramide, which is directed to the Golgi apparatus, while antigen-presenting cells were dyed with CMTMR-Orange and co-cultured without spironolactone (FIG. 4A) or in the presence of spironolactone (FIG. 4B) during 2 hrs, afterwards, the cells were observed under a confocal fluorescence microscope.
It has been determined that an efficient activation of T-lymphocytes requires an stable interaction between the antigen-presenting cell and the T-lymphocyte, which is known as “immune synapsis”. A stable immune synapsis is translated in a polarization of the Golgi apparatus, an organelle in charge of protein transport, of the T-lymphocyte towards the contacting site with the antigen-presenting cell. In this way, it is possible to observe an efficient immune synapsis checking if a polarization from Golgi apparatus towards the contacting site with the antigen-presenting cell exists or not. […] Afterwards, both cell groups were contacted and the interaction between cells using a confocal fluorescence microscope was observed. […]

[5] = tested on: purified CD8+ T-lymphocytes; assay: T-lymphocyte activation by plate-bound anti-CD3ε independent of antigen-presenting cells, IL-2 ELISA; format: cell-based; details: 5 ug/ml, 24 hrs, plate activated with different concentrations of anti-CD3ε (FIG. 3)
Protocol: FIG. 3: Plots showing the effect of a composition comprising spironolactone or epleronone in the activation of T-lymphocytes independent from antigen-presenting dendritic cells. An ELISA plate was activated with different concentrations of anti-CD3ε overnight, and then purified CD8+ T-lymphocytes were added and treated for 24 hrs with spironolactone (-□-), eplerenone (-▾-) o not treated (control -▴-). When the time was completed the supernatant was extracted and the IL-2 levels were determined using ELISA.
The following experiment was made in order to determine if spironolactone acts directly on T-lymphocytes or the effect is on the function of antigen-presenting cells. An ELISA plate was activated with different concentrations of anti-CD3ε overnight, and then, purified CD8+T-lymphocytes were added and treated with either spironolactone or epleronone (5 ug/ml) during 24 hrs. After that period, the supernatant was withdrawn and IL-2 levels were determined using ELISA. This assay is based on that T-lymphocytes, beside expressing TCR, express a protein denominated CD3, which transduces the activating signal, generated by the interaction of TCR with the antigenic peptide bound to the MHC of the antigen-presenting cell, to the interior of the T-lymphocyte.

[6] = tested on: systemic lupus erythematosus-like disease in FcγII receptor knockout mice; assay: Effect of spironolactone in systemic lupus erythematosus mice; format: in vivo; details: pellets supplemented with 1.8 mg daily, oral, compared to regularly fed mice (FIG. 5)
[7] = tested on: experimental autoimmune encefalomyelitis (EAE) induced with MOG 35-55 peptide; assay: Effect of a spironolactone composition in EAE mice (clinical score); format: in vivo, C57BL/6 female mice; details: EAE induced C57BL/6 mice, pellets supplemented with daily dose of 1.8 mg per mouse, oral, vs control group on standard pellets (FIG. 1)

Structure (SMILES)	induction of T helper 17 (Th17) phenotype in CD4+ T-cells by stimulated dendritic cells ([1]; dendritic cells stimulated with aldosterone)	effect on disease in EAE mice [2]	suppression of activator effects of aldosterone in the function of dendritic cells [1]	activation of T-lymphocytes (IL-2 secretion, ELISA) [3]	immune synapsis (polarization of the Golgi apparatus of the T-lymphocyte towards the antigen-presenting cell) [4]	secretion of IL-2 (ELISA) [5]	deposition of immune complexes in the kidney [6]	clinical score associated with the disease [7]
C[C@]12CCC(=O)C=C1CC[C@@H]1[C@@H]2[C@@H](O)C[C@]2(C=O)[C@@H](C(=O)CO)CC[C@@H]12 [aldosterone]	induce the T helper 17 (Th17) phenotype in CD4+ T-cells	showed a deterioration in their disease	–	–	–	–	–	–
COC(=O)[C@@H]1CC2=CC(=O)CC[C@]2(C)[C@@]23O[C@@H]2C[C@@]2(C)[C@@H](CC[C@@]24CCC(=O)O4)[C@H]13 [epleronone]	–	–	could be suppressed	no such inhibiting effect on the activation of T-lymphocytes is observed	–	–	–	–
CC(=O)S[C@@H]1CC2=CC(=O)CC[C@]2(C)[C@H]2CC[C@@]3(C)[C@@H](CC[C@@]34CCC(=O)O4)[C@H]12 [spironolactone]	–	only spironolactone had protecting effects	could be suppressed	inhibits the activation of T-lymphocytes	immune synapsis is not produced	same inhibiting effect on the secretion of IL-2	did not observe a decrease in the deposition of immune complexes in the kidney	significantly reduces the clinical score
